Source: patent publication US6342582B1, “Reaction and dissolving medium for peptides and synthesis method using this medium” (Rhodia Chimie, priority 1990, dated 2002)
Where a name gives a salt, the structure may show the parent alone. One block for each compound: values may come before it. Where a SMILES comes first, the peptide text is derived from it. The star is where a group is joined. OBn = c1ccc(CO*)cc1

Tests used:
[1] = Dissolving experiments: solubility of the peptide intermediate in solvent or solvent/additive mixture; details: 25° C.; for Solubility in the 4/1 dichloromethane/phenol mixture: 4/1 dichloromethane/phenol by weight; for Solubility in 4/1 dichloromethane/dimethylformamide: comparison, additive not part of the invention
Procedure: Protocol for dissolving experiments
The solubilities of the peptide intermediate were determined as follows, at a temperature of 25° C.
An accurately weighed amount of the peptide intermediate is placed in a Pyrex tube. The solvent or mixture of solvents to be tested is then introduced using a precision pipette so as to obtain a ratio of mass of peptide/volume of solvent of 8 g/100 cm^3.
The tube, closed by a screw stopper, is then placed on a HEIDOLPH agitator, TOP-MIX model, vibrating at its maximum speed for 60 seconds.
If not, the volume of solvent is doubled and the procedure is started again.
At the end of 4 successive dilutions without complete dissolution, the measurements are repeated on a smaller amount of solid.
Remarks: The composition of the solvent/additive mixtures is expressed by weight.

[2] = Solubility in dichloromethane determined by HPLC, external standardization, on a saturated solution; format: physicochemical
Procedure: The solubility in dichloromethane was determined by HPLC, using external standardization, on a saturated solution of Boc-Gly5-OCH3.
The solubility in dichloromethane was determined by HPLC, by external standardization on the supernatant of a saturated solution; the other solubilities were determined as in Example 1: […]

[3] = Distribution of the peptide between dichloromethane (with phenol) and water; format: physicochemical; details: dichloromethane (12 cm^3) + 3.9 g phenol / aqueous KHCO3 2 N (3 cm^3); HPLC
Procedure: With a view to purification of this tetrapeptide, by washing with water at the end of its synthesis, the distribution of this peptide between dichloromethane and water was studied as follows.
A solution of Gly-Gly-Phe-Leu-OBzl hydrochloride (0.9 mmole) in dichloromethane (12 cm^3) is stirred vigorously in the presence of an aqueous KHCO3 solution (2 N; 3 cm^3). This mixture yields an emulsion which remains stable for several days. A comparative experiment was carried out in the presence of phenol:
A distribution experiment carried out in accordance with Example 15 after the addition of 3.9 g of phenol to the organic solution yields, after identical stirring, two clear liquid phases, the settling out of which is complete in less than 15 minutes.

[4] = comparison additive, concentrations lower than 2 g/100 cm^3 were not tested

Solubility in the 4/1 dichloromethane/phenol mixture [1]: s = 2 g/100 cm^3
Solubility in dichloromethane [1]: s < 0.05 g/100 cm^3
SMILES: NC(N)=NCCC[C@H](N)C(=O)N1CCC[C@H]1C(=O)O [Afg-Pro.2HCl, L-arginyl-L-proline dihydrochloride] (H-Arg-Pro-OH)

SMILES: COC(=O)CNC(=O)CNC(=O)CNC(=O)CNC(=O)CNC(=O)OC(C)(C)C [Boc-Gly5-OCH3, N-tert-butoxycarbonylpentaglycine methyl ester]
Solubility in dichloromethane (HPLC) [2]: s = 0.33 g/100 cm^3
Solubility in 2-chlorophenol ([1]; 2-chlorophenol alone): s > 8 g/100 cm^3
Solubility in 4/1 anisole/phenol ([1]; 4/1 anisole/phenol by weight): s = 4 g/100 cm^3
Solubility in the 4/1 dichloromethane/phenol mixture [1]: s = 4 g/100 cm^3
Solubility in 20/1 dichloromethane/phenol ([1]; 20/1 dichloromethane/phenol by weight): s = 0.5 g/100 cm^3
Solubility in anisole ([1]; anisole): s < 0.05 g/100 cm^3

SMILES: CC(C)(C)OC(=O)NCC(=O)NCC(=O)NCC(=O)NCC(=O)NCC(=O)OCc1ccccc1 [Boc-Gly-Gly-Gly-Gly-Gly-O-CH2-Ph, N-tert-butoxycarbonylpentaglycine benzyl ester]
Solubility in dichloromethane (HPLC) [2]: s = 0.07 g/100 cm^3
Solubility in 9/1 dichloromethane/phenol ([1]; 9/1 dichloromethane/phenol by weight): s > 5 g/100 cm^3
Solubility in 9/1 dichloromethane/2-octanol [1, 4]: s < 2 g/100 cm^3
Solubility in 9/1 dichloromethane/dimethylformamide [1, 4]: s < 2 g/100 cm^3
Solubility in 9/1 dichloromethane/pivalic acid [1, 4]: s < 2 g/100 cm^3
Solubility in 9/1 dichloromethane/trifluoroethanol [1, 4]: s < 2 g/100 cm^3
Solubility in dichloromethane saturated with LiCl [1, 4]: s < 2 g/100 cm^3

Share of the tetrapeptide employed found in the aqueous phase [3]: 0.4%
SMILES: CC(C)C[C@H](NC(=O)[C@H](Cc1ccccc1)NC(=O)CNC(=O)CN)C(=O)OCc1ccccc1 [Gly-Gly-Phe-Leu-OBzl, Glycyl-glycyl-L-phenylalanyl-L-leucine benzyl ester] (H-GGFL-OBn)

SMILES: N[C@@H](Cc1c[nH]cn1)C(=O)N[C@@H](Cc1c[nH]c2ccccc12)C(=O)O [His,Trp.HCl, L-histidinyl-L-tryptophan hydrochloride]
Solubility in the 4/1 dichloromethane/phenol mixture [1]: s = 2 g/100 cm^3
Solubility in dichloromethane [1]: s < 0.05 g/100 cm^3

Solubility in 4/1 dichloromethane/3-trifluoromethylphenol ([1]; 4/1 dichloromethane/3-trifluoromethylphenol by weight): s = 4 g/100 cm^3
Solubility in 4/1 dichloromethane/4-methoxyphenol ([1]; 4/1 dichloromethane/4-methoxyphenol by weight): s = 4 g/100 cm^3
Solubility in 4/1 dichloromethane/dimethylformamide [1]: s < 0.5 g/100 cm^3
Solubility in the 4/1 dichloromethane/phenol mixture [1]: s = 4 g/100 cm^3
Solubility in 5/1 dichloromethane/2-hydroxypyridine ([1]; 5/1 dichloromethane/2-hydroxypyridine by weight): s = 1 g/100 cm^3
Solubility in dichloromethane [1]: s < 0.05 g/100 cm^3
SMILES: CC(C)C[C@H](N)C(=O)N[C@@H](CCCNC(=N)N)C(=O)N1CCC[C@H]1C(=O)NCC(N)=O [Leu-Arg-Pro-Gly-NH2.HCl, L-leucyl-L-arginyl-L-prolyl-glycinamide hydro-chloride] (H-LRPG-NH2)

SMILES: NC(=O)CNC(=O)[C@@H]1CCCN1 [Pro-Gly-NH2.HCl, L-prolyl-glycinamide hydrochloride] (H-Pro-Gly-NH2)
Solubility in 4/1 dichloromethane/dimethylformamide [1]: s < 0.5 g/100 cm^3
Solubility in the 4/1 dichloromethane/phenol mixture [1]: s > 16 g/100 cm^3
Solubility in dichloromethane [1]: s < 0.05 g/100 cm^3

SMILES: COC(=O)[C@H](Cc1ccc(O)cc1)NC(=O)[C@@H](N)CO [Ser-Tyr-OCH3.HCl, L-serinyl-L-tyrosine methyl ester hydrochloride] (H-Ser-Tyr-OMe)
Solubility in dichloromethane [1]: s < 0.05 g/100 cm^3
